What was measured:
[1] = Photothermal conversion efficiency; assay type: physicochemical; set-up: η (THF), photothermal conversion efficiency: concentration or dose not given beside the values; details: for η (DMSO), photothermal conversion efficiency: in DMSO; for η (THF), photothermal conversion efficiency: in THF; for η (NPs), photothermal conversion efficiency: nanoparticles (nanoaggregates)
Procedure: FIGS. 3A, 3B, and 3C relate to the thermal reaction of NI2 NPs according to 691 nm laser irradiation at 1 W/cm^2 and 1.5 W/cm^2 according to an embodiment of the present disclosure. FIG. 3A illustrates temperature rise measured in NI2 NPs at various concentrations (0 for distilled water, 25, 50, 75, and 100 μM) after irradiation for 150 seconds (N=4); FIG. 3B illustrates photothermal convergence efficiency (PCE) of NI2 NPs (100 μM) in 4 ON/OFF cycles of laser irradiation (ON/OFF time=150 s/450 s; duty cycle=25%); and FIG. 3C illustrates infrared thermal images of NI2 NPs (100 μM) captured at various irradiation times (scale bar=5 mm);
FIGS. 3A, 3B and 3C show quantitative analysis results of the photothermal characteristics and photothermal conversion efficiency of NI2 nanoparticles according to various concentrations and laser irradiation times in a 691 nm laser (1 W/cm^2 and 1.5 W/cm^2) irradiation of NI2 nanoparticles. When the concentration of the NI2 solution (in D.W.) was changed from 0 to 100 μM, it could be seen that the temperature increased in proportion to the concentration when the temperature change of the NI2 solution was measured after absorption for 150 seconds. That is, in FIG. 3A, it may be seen that a temperature increase (ΔT) changes linearly after irradiation for 150 seconds (R^2=0.98 to 0.99), and the maximum temperature of the NI2 NP was 42.8±2.8° C. and 54.4±0.5° C. for 1 W/cm^2 and 1.5 W/cm^2 at 100 μM, respectively. […] In FIG. 3C, it may be seen in the captured sequential thermal images showing the “spatio-temporal distribution” in the temperature area.

[2] = UV-Vis absorption in DMSO; assay type: physicochemical; details: for λabs, absorption wavelength: in DMSO
Procedure: FIG. 2 illustrates UV-Vis absorption (solid line) and fluorescence emission (dotted line) spectra of NI1 (60 μM) and NI2 (40 μM) in DMSO according to an embodiment of the present disclosure;
In the UV-Vis spectrum of FIG. 2 and Table 1, an absorption peak of NI1 has a tendency of red-shift absorption (λabs=728 nm, in DMSO) compared to NI2 (λabs=690 nm, in DMSO) in an organic solvent. […] The molar absorption coefficient (8) of NI1 is relatively lower than that of NI2, which generates a conjugate in a free pair of electrons of an —NH group due to the introduction of a phenyl group in NI2 and may reduce an ICT effect from an electron donor group to an electron acceptor group compared to NI1.

## CNc1ccc(N=C2C(=C(C#N)C#N)c3ccccc3C2=C(C#N)C#N)cc1 [NI1]
[1]
  η (DMSO), photothermal conversion efficiency: 50.3%
  η (THF), photothermal conversion efficiency: 31.4%
  η (NPs), photothermal conversion efficiency: 58.3%
[2]
  ε, molar absorption coefficient: 12.0 ×10^3
  λabs, absorption wavelength: 728 nm

## N#CC(C#N)=C1C(=Nc2ccc(Nc3ccccc3)cc2)C(=C(C#N)C#N)c2ccccc21 [NI2]
[1]
  η (DMSO), photothermal conversion efficiency: 52.1%
  η (THF), photothermal conversion efficiency: 32.4%
  η (NPs), photothermal conversion efficiency: 92.5%
[2]
  ε, molar absorption coefficient: 15.6 ×10^3
  λabs, absorption wavelength: 690 nm
